Results taken from patent publication US20260092054A1, “FUSED RING COMPOUND AND PHARMACEUTICAL CONTAINING SAME” (KAKEN PHARMACEUTICAL CO., LTD., priority 2022, published 2026).

Legend:
human STAT6/pIL-4Rα = target: T1, human STAT6/pIL-4Rα (Homo sapiens, UniProt P42226); assay: Binding inhibitory activity between human STAT6/pIL-4Rα by fluorescence polarization method; details: rhSTAT6 (123-658) / FAM-pIL-4Rα peptide
T1 construct: histidine tag
T1 sequence (P42226 123-658): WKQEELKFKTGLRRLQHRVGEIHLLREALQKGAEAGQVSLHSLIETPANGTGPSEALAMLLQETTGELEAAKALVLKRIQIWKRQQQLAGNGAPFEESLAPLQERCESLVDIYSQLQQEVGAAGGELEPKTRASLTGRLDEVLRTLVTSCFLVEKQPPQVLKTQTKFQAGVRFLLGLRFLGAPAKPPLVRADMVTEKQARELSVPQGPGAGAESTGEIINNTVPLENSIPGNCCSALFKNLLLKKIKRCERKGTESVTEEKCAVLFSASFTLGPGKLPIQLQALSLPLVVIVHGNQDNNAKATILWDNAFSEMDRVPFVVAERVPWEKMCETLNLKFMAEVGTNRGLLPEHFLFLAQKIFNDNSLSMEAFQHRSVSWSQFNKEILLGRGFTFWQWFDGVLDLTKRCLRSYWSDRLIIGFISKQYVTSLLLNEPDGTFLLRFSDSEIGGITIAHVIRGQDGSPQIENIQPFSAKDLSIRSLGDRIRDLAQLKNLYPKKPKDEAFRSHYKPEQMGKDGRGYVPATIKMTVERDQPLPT
Protocol: Test Example 1: Measurement of Binding Inhibitory Activity Between Human STAT6/pIL-p 4Rα by Fluorescence Polarization Method
1) Construction of Histidine Tag-Fused Recombinant Human STAT6 (123 to 658 Region)
A histidine tag-fused recombinant human STAT6 (hereinafter referred to as rhSTAT6) expression vector [plasmid DNA in which a nucleic acid sequence containing human STAT6 (123-658 region) was inserted into a pET28a(+) vector (Novagen)] was inserted into E. coli, and the cells were cultured overnight under culturing conditions at 17° C. with IPTG treatment. After disrupting E. coli with a high-pressure homogenizer (EmulsiFlex-C3, manufactured by AVESTIN, Inc.), affinity purification using Ni-NTA agarose (manufactured by Qiagen), cation exchange chromatography using HiTrap® CM-FF (manufactured by GE healthcare), and gel filtration chromatography using Superdex® 200 10/300GL (manufactured by GE healthcare) were performed to obtain rhSTAT6.
2) Measurement of Binding Inhibitory Activity Between Human STAT6/pIL-4Rα by Fluorescence Polarization Method
A DMSO solution of the example compound was diluted with an assay buffer [for example, a buffer containing 50 mmol/L NaCl, 10 mmol/L HEPES (pH 7.0), 1 mmol/L DTT, 1 mmol/L EDTA, and 0.01 vol % NP-40, and the like] to prepare a compound-added solution. The DMSO concentration in the compound addition solution was adjusted to 1 or 2 vol %. 10 μL of the compound addition solution and an assay buffer containing 1 or 2 vol % DMSO were added to each well of a 384-well plate. 5 μL of an assay buffer solution containing rhSTAT6 (rhSTAT6 concentration: for example, 1 μmol/L) or an assay buffer was added to each well of a 384-well plate. After leaving the plate at room temperature for 30 minutes in the dark, 5 μL of an assay buffer solution (FAM-pIL-4Rp concentration: for example, 80 nmol/L) containing FAM-labeled phosphorylated IL-4Rα peptide (sequence: FAM-Ala-pTyr-Lys-Pro-Phe-Gln-Asp-Leu-IIe-NH2) (hereinafter, FAM-pIL-4Rp) or an assay buffer containing 2 vol % DMSO was added to each well of the 384-well plate. The mixture was left to stand at room temperature for 30 minutes in the dark, and then centrifuged (200 g, 1 minute, room temperature). Fluorescence polarization values were measured using Infinite (registered trademark) F500 (manufactured by Tecan Japan Co., Ltd.) (Excitation: 485 nm, Emission: 535 nm). The inhibition rate of each Example compound was calculated according to the following formula using the fluorescence polarization value (A) when rhSTAT6 and FAM-pIL-4Rp were added without adding the Example compound, the fluorescence polarization value (B) when FAM-pIL-4Rp was added without adding the Example compound and rhSTAT6, and the fluorescence polarization value (C) when each Example compound, rhSTAT6, and FAM-pIL-4Rp were added.
In the evaluation of each example compound, the 50% inhibitory concentration (IC50) of each example compound was calculated from a linear function equation of a straight line connecting two points sandwiching 50%.

human STAT6 = assay: Human STAT6 dependent reporter activity (IL-4 stimulated STAT6 reporter assay using STAT6-HEK293 cells); assay type: cell-based; details: IL-4 stimulation, luciferase activity; for inhibition at 0.1 µM / inhibition at 1 µM: Homo sapiens, read-out: Inhibition rate (%); for inhibition at 1 µM: compound 1 μmol/L
Protocol: Test Example 2: Measurement of Human STAT6 Dependent Reporter Activity
1) Construction of Human STAT6-HEK293 Cells
HEK 293 cells maintenance cultured by [Penicillin-Streptomycin (Thermo Fisher Scientific) and FBS, 1 vol % and 10 vol % respectively added to DMEM high glucose (Thermo Fisher Scientific)](manufactured by ATCC) were collected, and suspended in 10 mL of 0.5% BSA/PBS. 1×10^6 cells were collected, the supernatant was removed by centrifuging, and the cells were suspended in 100 μL of Nucleofector solution V (manufactured by Lonza K.K.). 2 μg of STAT6 vector [plasmid DNAs incorporating human STAT6 sequences in pcDNA3.1 (Invitrogen)] was added, and the STAT6 vector was introduced into the HEK293 cells using the program Q-001 initially registered in the Nucleofector®2b. A cell line (STAT6-HEK293 cells) consistently expressing STAT6 was acquired by selecting resistant cells in a medium containing Geneticin® (manufactured by Thermo Fisher Scientific). 2) STAT6 reporter assay using STAT6-HEK293 cells 3×10^6 STAT6-HEK293 cells maintained in assay medium [culture medium supplemented with 1 vol % Geneticin®] were harvested and seeded in a 10 cm dish. 3 μg of a STAT6 reporter vector [plasmid in which a sequence containing a STAT6 binding sequence and a C/EBP binding sequence in tandem was incorporated into pGL4.27 (manufactured by Promega Corporation)] and 9 μL of FuGENE® HD transfection reagent (manufactured by Promega Corporation) were added to 500 μL of Opti-MEM® (manufactured by Thermo Fisher Scientific) to prepare transfection solutions. The transfection solution was vortexed and left to stand for about 5 minutes, then added dropwise to the STAT6-HEK293 cells, which were then cultured overnight in a C02 incubator to produce STAT6 reporter cells.
The prepared STAT6 reporter cells were seeded on B&W isoplate-96 TC (PerkinElmer Japan Co., Ltd.) (3×10^4 cells/50 μL/well) and cultured overnight in a C02 incubator (37° C., 5% C02). 50 μL of assay medium was added to each well instead of the STAT6 reporter cells. The compound addition solution was prepared by diluting the DMSO solution of the example compound 250-fold using the assay medium. 20 μL of compound addition solution or 0.4 vol % DMSO-containing assay medium was added to the plate, and the plate was then cultured in a CO2 incubator for 1 hour. 10 μL of 80 ng/mL human IL-4 solution (Peprotech) or assay medium was added to each well, and the cells were cultured in a CO2 incubator for 6 hours.
STAT6 reporter activity was measured using the Bright-Glo® Luciferase Assay System (Promega). 100 μL of Bright-Glo® reagent was added to each well, and luciferase activity was measured using Infinite® F500. The inhibition rate of each Example compound was calculated by the following formula using the luciferase activity value (G) when no Example compound was added and stimulation with IL-4 was performed, the luciferase activity value (H) when no Example compound was added and stimulation with IL-4 was not performed, and the luciferase activity value (I) when each Example compound was treated and stimulation with IL-4 was performed.
Note that the viable cell rate under each condition was 70% or more, and it was determined that the luciferase activity inhibitory activity of each example compound was appropriately evaluated.

IC50 (human STAT6/pIL-4Rα) | SMILES | inhibition at 0.1 µM (human STAT6; compound 0.1 μmol/L) | inhibition at 1 µM (human STAT6) | Inhibition rate (%) (human STAT6; compound 0.1 μmol/L)
550 nM | Cc1nn(C)c(=O)n1-c1ccc(-c2cc3ccnc(C(=O)Nc4ccc(F)c(C(N)=O)c4)c3n2CCC(F)F)cc1 [Ex. 111] | 25% | 80% | 
2820 nM | CCn1c(-c2ccc(-n3c(C)nn(C)c3=O)cc2)cc2cc(C(F)(F)F)cc(C(=O)Nc3cccc(OC)n3)c21 [Ex. 102] |  | 60% | 
320 nM | Cc1nn(C)c(=O)n1-c1ccc(-c2cc3ccnc(C(=O)Nc4ccc(F)c(C(N)=O)c4)c3n2CC2CC2)cc1 [Ex. 24] | 54% | 98% | 
290 nM | COCCn1c(-c2ccc(-n3c(C)nn(C)c3=O)cc2)cc2cc(C(F)(F)F)cc(C(=O)Nc3ccccn3)c21 [Ex. 69] | 61% | 100% | 
370 nM | CCn1c(-c2ccc(-n3c(C)nn(C)c3=O)cc2)cc2cc(C(F)(F)F)nc(C(=O)Nc3cccc(C(N)=O)c3F)c21 [Ex. 83] | 68% | 98% | 
370 nM | COCCn1c(-c2ccc(-n3c(C)nn(C)c3=O)cc2)cc2cc(C(F)(F)F)cc(COc3cccc(C(N)=O)c3)c21 [Ex. 138] | 35% | 93% | 
490 nM | CCn1c(-c2ccc3c(c2)CCN3C(C)=O)nc2cc(C(F)(F)F)cc(C(=O)Nc3cccc(C(N)=O)c3F)c21 [Ex. 2] | 14% | 72% | 
390 nM | CCn1c(-c2ccc(-n3cnn(C)c3=O)cc2)nc2cc(C(F)(F)F)cc(C(=O)Nc3cccc(C(N)=O)c3F)c21 [Ex. 1] | 22% | 93% | 
480 nM | COCCn1c(-c2ccc(N3C(=O)C(C)CC3C)cc2)cc2ccnc(C(=O)Nc3cccc(C(N)=O)c3)c21 (stereo not drawn) [Ex. 136] | 61% |  | 
380 nM | CCn1c(-c2ccc(-n3c(C)nn(C)c3=O)cc2)cc2ccnc(C(=O)Nc3cccc(C(=O)NCC#N)c3)c21 [Ex. 189] | 72% | 97% | 
330 nM | CCn1c(-c2ccc(-n3cnn(C)c3=O)cc2)cc2cc(C(F)(F)F)cc(C(=O)Nc3ccc(F)c(C(N)=O)c3)c21 [Ex. 38] |  | 100% | 99%
280 nM | CCn1c(-c2ccc(N3C(=O)C(C)CC3C)cc2)nc2cc(C(F)(F)F)cc(C(=O)Nc3cccc(C(N)=O)c3F)c21 (single isomer, unassigned) [Ex. 219] | 32% | 96% | 
380 nM | CNC(=O)c1cccc(NC(=O)c2cc(C(F)(F)F)cc3cc(-c4ccc(-n5c(C)nn(C)c5=O)cc4)n(CCOC)c23)n1 [Ex. 172] | 17% | 83% | 
470 nM | CCn1c(-c2ccc(-n3c(C)nn(C)c3=O)cc2)cc2ccnc(C(=O)Nc3ccc(F)c(C(=O)Nc4cc[nH]n4)c3)c21 [Ex. 185] | 34% | 96% | 
300 nM | CCn1c(-c2ccc(-n3cnn(C)c3=O)cc2)c(Cl)c2cc(C(F)(F)F)cc(C(=O)Nc3ccc(F)c(C(N)=O)c3)c21 [Ex. 142] | 94% | 100% | 
430 nM | COCCn1c(-c2ccc(-n3c(C)nn(C)c3=O)cc2)cc2cc(C(F)(F)F)cc(C(=O)Nc3cccc(CO)c3)c21 [Ex. 115] | 54% | 95% | 
270 nM | COCCn1c(-c2ccc(-n3c(C)nn(C)c3=O)cc2)cc2ccnc(C(=O)Nc3cccc(C(=O)Nc4cccn(C)c4=O)c3)c21 [Ex. 196] | 81% |  | 
280 nM | COCCn1c(-c2ccc(-n3cnn(C)c3=O)cc2)cc2cc(C(F)(F)F)cc(C(=O)Nc3ccc(F)c(C(N)=O)c3)c21 [Ex. 41] | 92% | 100% | 
290 nM | CCn1c(-c2ccc(-n3c(C)nn(C)c3=O)cc2)cc2cc(C(F)(F)F)cc(C(=O)Nc3cccc(C(=O)NC)c3)c21 [Ex. 40] | 92% | 100% | 
730 nM | CCn1c(-c2ccc(N3C(=O)C(C)CC3C)cc2)cc2cccc(C(=O)Nc3ccc(F)c(C(N)=O)c3)c21 (stereo not drawn) [Ex. 158] | 44% | 96% | 
1000 nM | CCn1c(-c2ccc(-n3ncn(C)c3=O)cc2)cc2cc(C(F)(F)F)cc(C(=O)Nc3cccc(C(N)=O)c3F)c21 [Ex. 47] | 43% | 95% | 
360 nM | CCn1c(-c2ccc(-n3c(C)nn(C)c3=O)cc2)cc2c(F)ccc(C(=O)Nc3ccc(F)c(C(N)=O)c3)c21 [Ex. 76] | 31% | 94% | 
400 nM | CCn1c(-c2ccc(-n3ncn(C)c3=O)cc2)cc2cccc(C(=O)Nc3ccc(F)c(C(N)=O)c3)c21 [Ex. 156] | 46% | 99% | 
